According to US9862680B2, “Peripherally substituted monocyclic beta-lactams” (University of Notre Dame du Lac, priority 2016, dated 2018):

What was measured:
[1] = system: M. Vaccae IMET 10670; test: Agar diffusion assay (modified Kirby-Bauer); type: cell-based; details: 2 mM solution, 50 μL in 9.0 mm well, 48 hours incubation, P unclear, V very unclear zone, * slightly misshapen zone
Method: (§1) Antibacterial activity of the compounds was determined by a modified Kirby-Bauer^27-28 agar-diffusion assay. Overnight cultures of test organisms were grown in LB broth for 18-24h and standard suspensions of […] were prepared in saline solution (0.9% NaCl) according to a 0.5 BaSO4 McFarland Standard. This standardized suspension (0.1 mL) was added to 34 mL of sterile, Mueller Hinton No. 2 agar tempered to 47-50° C. After gentle mixing, the inoculated agar media was poured into a sterile plastic petri dish (145 mm×20 mm) and allowed to solidify near a flame with the lid cracked for 30 min. Wells of 9.0 mm diameter were cut from the petri dish agar and filled with exactly 50 μL of the test sample solution. For studies using mixtures of compounds, both test compounds were diluted to equal concentrations and 50 μL of the mixed compound solution was added to the cut well. The petri dish was incubated at 37° C. for 18-24 h and the inhibition zone diameters were measured (mm) with an electronic caliper after 24-48 h.
(§2) All compound-containing solutions were prepared by first making a 20 mM solution of the compound in DMSO and then diluting that solution 10-fold with MeOH to give the final 2 mM solution used in the assay.
(§3) Plates were incubated after inoculation at 37° C. for 20 hours. Plates were photographed after 1 day. M. vaccae required a longer incubation time, 48 hours, and was photographed after 3 days.

[2] = system: P. Aeruginosa K799/61; test: Agar diffusion assay (modified Kirby-Bauer); type: cell-based; details: P. Aeruginosa K799/61 (permeability mutant); 2 mM solution, 50 μL in 9.0 mm well; P unclear, V very unclear zone, * slightly misshapen zone
Method: as §1, §2, §3

[3] = system: E. Coli DC0; test: Agar diffusion assay (modified Kirby-Bauer); type: cell-based; details: 2 mM solution, 50 μL in 9.0 mm well, P unclear, V very unclear zone, * slightly misshapen zone
Method: as §1, §2, §3

[4] = system: E. Coli DC2; test: Agar diffusion assay (modified Kirby-Bauer); type: cell-based; details: E. Coli DC2, 2 mM solution, 50 μL in 9.0 mm well, P unclear, V very unclear zone, * slightly misshapen zone
Method: as §1, §2, §3

[5] = system: A. Baumannii ATCC 17961; test: Agar diffusion assay (modified Kirby-Bauer); type: cell-based; details: 2 mM solution, 50 μL in 9.0 mm well, P unclear, V very unclear zone, * slightly misshapen zone
Method: as §1, §2, §3

[6] = system: B. Subtilis ATCC 6633; test: Agar diffusion assay (modified Kirby-Bauer); type: cell-based; details: 2 mM solution, 50 μL in 9.0 mm well, P unclear, V very unclear zone, * slightly misshapen zone
Method: as §1, §2, §3

[7] = system: B. Dolosa AU 0018; test: Agar diffusion assay (modified Kirby-Bauer); type: cell-based; details: 2 mM solution, 50 μL in 9.0 mm well, P unclear, V very unclear zone, * slightly misshapen zone
Method: as §1, §2, §3

[8] = system: M. Luteus ATCC 10240; test: Agar diffusion assay (modified Kirby-Bauer); type: cell-based; details: M. Luteus ATCC 10240, 2 mM solution, 50 μL in 9.0 mm well, P unclear, V very unclear zone, * slightly misshapen zone
Method: as §1, §2, §3

[9] = system: S. Aureus SG511; test: Agar diffusion assay (modified Kirby-Bauer); type: cell-based; details: 2 mM solution, 50 μL in 9.0 mm well, P unclear, V very unclear zone, * slightly misshapen zone
Method: as §1, §2, §3

[10] = system: P. Aeruginosa K799/wt; test: Agar diffusion assay (modified Kirby-Bauer); type: cell-based; details: P. Aeruginosa K799/wt (wild type); 2 mM solution, 50 μL in 9.0 mm well; P unclear, V very unclear zone, * slightly misshapen zone
Method: as §1, §2, §3

[11] = system: panel of Gram-positive and Gram-negative bacteria; test: Kirby-Bauer agar diffusion assays, results in words; type: cell-based
Method: as §1, §2, §3

[12] = system: panel of Gram-positive and Gram-negative bacteria; test: MIC determination; type: cell-based; details: same panel of Gram-positive and Gram-negative bacteria, all values
[13] = target: AmpC; test: β-lactamase inhibition, Ki by enzyme kinetics (nitrocefin); type: biochemical; details: class C
Method: (§4) The enzymes KPC-2, Oxa-48, AmpC and NDM-1 were purchased from Emerald Bioscience and the enzymes CTX-14 and SHV-12 were expressed and purified from E. coli at Rempex pharmaceutical (San Diego, Calif.).
(§5) To the first row of a 2-mL deep 96-well block was added 1 mL of 50 mM sodium phosphate buffer at pH 7 with 0.1 mg/mL BSA (bovine serum albumin). To the first row was added an appropriate amount of a 10 mg/mL solution of the compound to be tested to make a 640 μM (4×) solution. Each of the other wells in the 96-well block were charged with 750 μL of the aforementioned buffer. The rows were then repeatedly diluted 1:3 so that the final concentrations of the individual 96-well plates would range in concentrations from 160 μM to 3 nM (8 dilutions). The master block was then used to add 50 pt to each corresponding well in the 96-well flat-bottom plate. An additional 50 of buffer was added to each well. Once the plates were prepared, 50 μL of the enzyme to be tested against were added in buffer to each well [KPC-2 (0.147 mg/mL), CTX-M-14 (0.102 mg/mL), […] (0.331 mg/mL), AmpC (0.699 mg/mL), SHV-12 (0.111 mg/mL), NDM-1 (0.110 mg/mL)]. The plates were incubated at rt for 10 min before 50 μL. of an appropriate indicator were added to each well and the optical density at 495 nm was measured over time. For each enzyme, other than NDM-1, nitrocefin was used. Nitrocefin (10 μM for SHV-12, 50 μM for the other enzymes), was appropriate because when cleaved by a β-lactamase, the color changes from yellow to red. For NDM-1, imipenem (10 μM) was the indicator of choice. Rather than observe the growing presence of optical density at 495 nm, as with nitrocefin, the disappearance of imipenem was monitored. The inhibition curves were monitored and used to perform enzyme kinetics according to Waley to determine the Ki (μM) of each compound against the β-lactamases screened.

[14] = target: T1, Oxa-48 (Klebsiella pneumoniae, UniProt Q6XEC0); test: as above; type: biochemical; details: Oxa-48, class D
T1 construct: purchased Emerald Bioscience
T1 sequence (Q6XEC0 23-265 limits assumed): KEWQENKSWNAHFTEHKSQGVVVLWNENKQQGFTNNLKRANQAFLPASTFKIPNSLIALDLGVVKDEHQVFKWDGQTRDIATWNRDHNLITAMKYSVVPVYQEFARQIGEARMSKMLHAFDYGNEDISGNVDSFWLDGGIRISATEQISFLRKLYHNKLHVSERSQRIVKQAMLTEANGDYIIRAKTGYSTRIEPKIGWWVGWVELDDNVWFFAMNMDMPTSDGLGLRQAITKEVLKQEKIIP
Method: as §4, §5

[15] = target: T2, SHV-12 (Klebsiella pneumoniae, UniProt P0AD64, E235K/G234S/L31Q); test: as above; type: biochemical; details: SHV-12, class A
T2 construct: host or cells: E. coli
T2 sequence (P0AD64 22-286 L31Q/G234S/E235K): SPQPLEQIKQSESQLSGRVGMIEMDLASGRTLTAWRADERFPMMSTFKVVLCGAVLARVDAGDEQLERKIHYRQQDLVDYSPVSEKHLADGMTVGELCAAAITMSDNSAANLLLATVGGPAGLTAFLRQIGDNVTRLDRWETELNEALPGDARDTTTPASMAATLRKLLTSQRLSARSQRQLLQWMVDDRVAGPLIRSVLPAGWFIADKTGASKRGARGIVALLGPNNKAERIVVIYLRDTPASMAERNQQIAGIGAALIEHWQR
Method: as §4, §5

[16] = target: T3, CTX-M-14 (Escherichia coli, UniProt Q9L5C7); test: as above; type: biochemical; details: CTX-M-14, class A
T3 construct: host or cells: E. coli
T3 sequence (Q9L5C7 entry or part of it): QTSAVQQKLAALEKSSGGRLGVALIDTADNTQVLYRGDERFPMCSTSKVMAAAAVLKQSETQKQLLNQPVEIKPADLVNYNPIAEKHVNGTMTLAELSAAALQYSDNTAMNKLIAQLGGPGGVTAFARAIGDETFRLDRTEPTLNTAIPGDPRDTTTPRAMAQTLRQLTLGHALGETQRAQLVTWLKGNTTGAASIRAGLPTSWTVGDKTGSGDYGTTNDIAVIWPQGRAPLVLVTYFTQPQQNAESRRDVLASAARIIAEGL
Method: as §4, §5

[17] = target: T4, KPC-2 (Klebsiella pneumoniae, UniProt Q9F663); test: as above; type: biochemical; details: KPC-2, class A
T4 construct: purchased Emerald Bioscience
T4 sequence (Q9F663 25-293 limits assumed): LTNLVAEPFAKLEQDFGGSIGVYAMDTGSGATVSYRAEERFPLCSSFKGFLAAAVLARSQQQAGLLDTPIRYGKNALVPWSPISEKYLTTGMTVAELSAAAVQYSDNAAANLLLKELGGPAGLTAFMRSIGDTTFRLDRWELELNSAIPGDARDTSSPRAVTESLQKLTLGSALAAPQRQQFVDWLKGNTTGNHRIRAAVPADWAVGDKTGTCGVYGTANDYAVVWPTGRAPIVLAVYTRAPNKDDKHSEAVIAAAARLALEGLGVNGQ
Method: as §4, §5

[18] = target: PAM 2035; test: β-lactamase inhibition, Ki by enzyme kinetics; type: biochemical; details: PAM 2035, class C
[19] = target: T5, NDM-1 (Klebsiella pneumoniae, UniProt C7C422); test: β-lactamase inhibition, Ki by enzyme kinetics (imipenem); type: biochemical; details: NDM-1, class B
T5 construct: purchased Emerald Bioscience
T5 sequence (C7C422 29-270 limits assumed): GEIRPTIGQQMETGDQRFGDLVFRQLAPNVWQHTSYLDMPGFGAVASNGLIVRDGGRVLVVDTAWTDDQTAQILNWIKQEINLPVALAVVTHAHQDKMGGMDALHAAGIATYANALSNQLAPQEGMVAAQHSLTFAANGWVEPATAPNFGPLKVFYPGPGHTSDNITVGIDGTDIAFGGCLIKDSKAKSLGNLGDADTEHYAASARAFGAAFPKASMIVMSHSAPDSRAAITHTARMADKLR
Method: as §4, §5

[20] = target: VIM-1 (Pseudomonas aeruginosa, UniProt A0A0F7KYQ8); test: β-lactamase inhibition, Ki by enzyme kinetics; type: biochemical; details: VIM-1, class B
[21] = system: selected β-lactamase enzymes from classes A, B, C and D; test: β-lactamase inhibitory activity, results in words; type: biochemical; details: C and D (Ambler classification)
Method: as §5

| Compound | Zone of Growth Inhibition [2] | Zone of Growth Inhibition [3] | Zone of Growth Inhibition [5] | Zone of Growth Inhibition [6] | Zone of Growth Inhibition [10] | Ki [13] | Ki [14] | Ki [15] | Ki [16] | Ki [17] | Ki [18] | Zone of Growth Inhibition [4] | Zone of Growth Inhibition [7] | Ki [19] | Ki [20] | β-lactamase inhibitory activity, selectivity [21] | Zone of Growth Inhibition [9] | other results |
| --- | --- | --- | --- | --- | --- | --- | --- | --- | --- | --- | --- | --- | --- | --- | --- | --- | --- | --- |
| CC(C)(C)OC(=O)NCCSC[C@@H]1NC(=O)[C@H]1NC(=O)OCC1c2ccccc2-c2ccccc21 [Compound 41] | 16P | 15V | 13P | 13P | 15P |  |  |  |  |  |  |  |  |  |  |  |  | Zone of Growth Inhibition [1]: 17V; zone of inhibition at 2000 µM ([4]; Escherichia coli, read-out: Zone of Growth Inhibition): 0 mm; zone of inhibition at 2000 µM ([7]; Burkholderia dolosa, read-out: Zone of Growth Inhibition): 0 mm; zone of inhibition at 2000 µM ([8]; Micrococcus luteus, ATCC10240, read-out: Zone of Growth Inhibition): 0 mm; zone of inhibition at 2000 µM ([9]; Staphylococcus aureus, read-out: Zone of Growth Inhibition): 0 mm; antibacterial activity ([11]; E. coli strains DC0 and DC2): only active against the permeability mutant DC0; antibacterial activity ([11]; P. aeruginosa, both the wild type (K799/0 wt) and the permeability mutant (K799/61)): showed activity; antibacterial activity ([11]; against B. subtilis and M. vaccae, A. baumannii, P. aeruginosa and E. coli): moderate activity; MIC [12]: > 50 µM |
| O=C1CC(CBr)N1OS(=O)(=O)/C=C/c1ccccc1 (stereo not drawn) [Compound 61a] | 0 mm | 0 mm | 0 mm | 15* mm | 0 mm | > 160 µM | 1.48 µM | 0.779 µM | 0.149 µM | 19.3 µM | > 160 µM | 0 mm | 0 mm | > 160 µM | > 160 µM | inhibited enzymes from both classes A and D |  | Zone of Growth Inhibition [8]: 17 mm |
| O=C1CC(CBr)N1OS(=O)(=O)c1cccc2ccccc12 (stereo not drawn) [Compound 61b] | 0 mm | 0 mm | 0 mm | 12 mm | 0 mm | > 160 µM | 4.67 µM | 0.198 µM | > 160 µM | > 160 µM | > 160 µM | 0 mm | 0 mm | > 160 µM |  | inhibited enzymes from both classes A and D | 14P |  |
| O=C1CC(CBr)N1OS(=O)(=O)c1ccc2ccccc2c1 (stereo not drawn) [Compound 61c] | 0 mm | 0 mm | 0 mm |  | 0 mm | > 160 µM | > 160 µM | 0.19 µM | > 160 µM | > 160 µM | > 160 µM | 0 mm | 0 mm | > 160 µM | > 160 µM | active only against the class A enzyme SHV-12 | 15 mm |  |
